Here are results for 80 compounds from the METLIN SMRT retention time set (Domingo-Almenara et al. 2019).

The nature of this data set: gradient 5% acetonitrile 3 min, to 50% in 2 min, to 85% in 15 min, held 3 min, 100 µL/min. As to conditions: column: Zorbax Extend-C18 2.1 x 50 mm; eluents: water / acetonitrile, 0.1% formic acid. In short, it runs like this: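 Standards, all pure, were combined into mixtures of ~100 molecules and run at 100 μL/min on a Zorbax Extend-C18 column (2.1 × 50 mm, 1.8 μm) with water and acetonitrile, each containing 0.1% formic acid. A coupled quadrupole time-of-flight mass spectrometer operated in positive and negative ionization mode. Retention time values come from computationally picked adduct peaks, each inspected manually.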
`O=C(Cn1ccc2c(SCc3ccccc3)nccc21)NCCCN1CCCC1` came in with an RP-LC retention time of 587 s. The same measure for `CCCCC(=O)Nc1ccc(N(C)CCc2c(C)nn(C)c2C)c(C(=O)O)c1`: 576 s; for `COc1ccccc1C(=O)Nc1cccn2nc(C(C)C)nc12`: 1020 s.

For the compound `CN1CCC(OC2CCN(C(=O)c3ccc(Br)o3)CC2)CC1`, the RP-LC retention time turned out to be 597 s. Consider `CC(C)(C)c1noc(Cc2nnc(-c3ccc(F)cc3)o2)n1`, for which the RP-LC retention time was 942 s.

Take `O=c1c2nc(-c3ccc(Cl)cc3)cn2ccn1-c1ccc(F)c(F)c1`: the RP-LC retention time came out at 891 s. `CCNC(=O)C1CCN(c2nc3ccc(-c4cccnc4)nc3s2)CC1`: the RP-LC retention time stood at 591 s. Compound `COCCCNC(=O)C1CCN(S(=O)(=O)N(CC(C)C)CC(C)C)CC1` showed an RP-LC retention time of 877 s.

Compound `CCc1nc2cc(N3CCCC(C(=O)NCCN4CCOCC4)C3)cnc2nc1CC` (stereo not given) came in with an RP-LC retention time of 594 s. For `O=C(Nc1ccc(C(=O)N2CCCCC2)c(N2CCCCCC2)c1)C1CC1`, the RP-LC retention time was found to be 866 s. Compound `Cc1ccc2c(c1)C1CC(C)(O2)N(c2cccc(C(=O)N3CCCC3)c2)C(=O)N1` (stereo not given) yielded an RP-LC retention time of 754 s. Compound `CN(C)C[C@@H]1CN(c2ncccn2)C[C@H]1NS(=O)(=O)c1cccc(C#N)c1` gave an RP-LC retention time of 601 s. `COc1ccc(CCNC(=O)CSc2nc3sc(C)cc3c(=O)n2C)cc1OC`: the RP-LC retention time stood at 689 s.

In the case of `COC(=O)c1ncn2c1C(=O)N(Cc1cccc(C)c1)C(C)(C(=O)NCc1ccccc1)C2` (stereo not given), the RP-LC retention time worked out at 759 s. As for `COc1cccc(N2C(=O)N(Cc3cccc(F)c3)S(=O)(=O)c3cccnc32)c1`, the RP-LC retention time is 1010 s. `O=C(CN1CCN(Cc2ccc(F)cc2)C1=O)NCc1ccc(OC(F)(F)F)cc1`: the RP-LC retention time was found to be 901 s. The same measure for `O=C(CCn1nnc2cc(-c3noc(Cc4ccc(Br)cc4)n3)ccc21)N1CCOCC1`: 860 s; for `CCn1cc(S(=O)(=O)Nc2cc(C)ccc2F)c2cccnc21`: 846 s; for `C[C@H](Nc1ncnc2nc[nH]c12)c1cc2cccc(Cl)c2c(=O)n1-c1ccccc1`: 697 s. In turn, `Cc1noc(C)c1C(=O)N(C)C1CCc2nnc(C)n2CC1` (stereo not given) returned an RP-LC retention time of 552 s. The same measure for `Cc1cc(F)cc2c(=O)c3c([nH]c12)CCN(CC(=O)Nc1cccc(F)c1)C3`: 620 s; for `CCn1c(C(=O)NCCN2CCCCC2C)c(N2CCCC2=O)c2cc(OC)ccc21` (stereo not given): 637 s; for `CC(=O)c1cccc(NC(=O)Cn2c(=O)n(-c3cccc(C)c3)c(=O)c3c2cc(C)n3C)c1`: 796 s.

Compound `CCN(CC)S(=O)(=O)c1ccc(Cl)c(C(=O)NCc2ccccn2)c1` showed an RP-LC retention time of 676 s.

For `CC(=O)N1CCC(c2noc(-c3ccccn3)n2)C1` (stereo not given), the RP-LC retention time stood at 596 s. Turning to `Cc1ccc(NS(=O)(=O)c2cc(-c3[nH]ncc3C(=O)N3CCCCC3)oc2C)cc1`, the RP-LC retention time is 773 s.

`COC(=O)c1ccc2c(=O)n(-c3ccc(Cl)cc3)c(N3CCCN(C)CC3)nc2c1` showed an RP-LC retention time of 670 s. The same measure for `COc1ccc(N2C(=O)C3N=NN(c4ccc(F)c(Cl)c4)C3C2=O)cc1` (stereo not given): 1010 s; for `Cc1ccc(CNC(=O)Cn2nc(C(=O)N3CCCC3)c3ccccc32)o1`: 755 s. `Cc1nnc2ccc(-c3noc(-c4ccc(F)cc4)n3)cn12` gave an RP-LC retention time of 865 s.

Compound `CCc1noc(-c2ccc(-n3ncc(C(=O)NC(C)C)c3C)nc2)n1` displayed an RP-LC retention time of 837 s. In turn, `CCn1ccc2sc(C)c(C(=O)NCc3cccc(Cl)c3)c2c1=O` showed an RP-LC retention time of 926 s.

Regarding `O=C(Cn1c(=O)c2cccn2c2ccccc21)NCCCN1CCCCC1`, the RP-LC retention time was 595 s. The same measure for `O=C(NCc1ccc(Br)cc1)C1CCCN(c2ncc(-c3ccc(F)cc3)cn2)C1` (stereo not given): 1120 s. The compound `Cc1ccc(CNS(=O)(=O)c2cc3n(c2)CCCNC3=O)o1` registered an RP-LC retention time of 615 s. As for `Cc1ccc(-c2coc(-c3ccc(NC(=O)c4ccc(Br)o4)cc3)n2)cc1`, the RP-LC retention time came to 1230 s. `O=C(CN1CCN(Cc2ccccc2F)C1=O)NCc1ccc(N2CCCCC2)cc1` came in with an RP-LC retention time of 605 s. In the case of `CC(C)(C)NC(=O)N1CCC(CNC(=O)C2CCN(S(C)(=O)=O)CC2)CC1`, the RP-LC retention time turned out to be 599 s. `C=CCN1C(=O)COc2ccc(-c3nc(NC(=O)c4ccccc4Cl)sc3C)cc21` had an RP-LC retention time of 1010 s. With `Cc1ccccc1CNC(=O)CN1CCN(Cc2ccc(F)cc2Cl)C1=O`, the RP-LC retention time was 629 s. The same measure for `O=C(NCc1ccco1)C1CCN(c2nc3cccnc3s2)CC1`: 683 s; for `CCOCC(=O)N1CCC2(CC1)CC(O)(CC)CCO2` (stereo not given): 614 s; for `Cc1cc(N2CCN(C)CC2)n2nc(CN3CCN(c4cccc(Cl)c4)CC3)nc2n1`: 568 s. For the compound `CCOC(=O)C1CCCN(c2cc(-n3nc(C)cc3C)ncn2)C1` (stereo not given), the RP-LC retention time turned out to be 1040 s. The same measure for `O=S(=O)(NCc1ccc(F)cc1)c1ccccc1-c1nc(-c2cccc(F)c2)no1`: 1150 s; for `Cc1ccc(-c2nc3cccc(C)n3c2Nc2ccccc2C)cc1`: 797 s. The same measure for `CCc1cc(=O)n(CC(=O)Nc2cccc(F)c2)c(N)n1`: 613 s; for `Cc1noc(C2CN(C(=O)Nc3ccc(F)cc3)CC23CCOCC3)n1` (stereo not given): 723 s; for `COc1ccc(CC(=O)N2CCC(c3nncn3C(C)C)CC2)cc1`: 622 s. The same measure for `CCCCC(=O)Nc1nc(-c2ccc3c(c2)NC(=O)CO3)cs1`: 801 s.

`Fc1ccc(-c2nc(-c3ccc4nncn4c3)no2)cc1` returned an RP-LC retention time of 810 s. In the case of `CCOc1ccccc1NC(=O)N1CCc2cn(C)c3cccc(c23)C1`, the RP-LC retention time was 834 s. Turning to `CC1CCN(C(=O)CN2C(=O)CCCc3cc(S(=O)(=O)N4CCC(C)CC4)ccc32)CC1`, the RP-LC retention time worked out at 987 s. The compound `COc1ccc(-c2c(C)noc2NC(C)=O)cc1S(=O)(=O)N1CCc2ccccc21` gave an RP-LC retention time of 784 s. The compound `CC1(C)COc2ccc(NC(=O)COc3ccccc3F)cc2NC1=O` yielded an RP-LC retention time of 825 s. The same measure for `O=S(=O)(NCc1ccc(F)cc1Cl)c1c[nH]c2ncccc12`: 748 s; for `CCCc1ccc(S(=O)(=O)NCc2c(-c3ccccc3)nc3sc(C)nn23)cc1`: 1030 s. In the case of `Cc1cccc(-n2nc3c(c2-n2cccc2)CN(C(=O)c2snnc2C)C3)c1`, the RP-LC retention time was 894 s. `Cc1cnn(CCC(=O)N2CCCn3ccnc3C2C2CCCC2)c1` (stereo not given) came in with an RP-LC retention time of 611 s.

`Cc1ccc(NC(=O)N2CCCC(CCC(=O)NCCC3=CCCCC3)C2)cc1` (stereo not given): the RP-LC retention time stood at 947 s.

In turn, `Cc1oc(-c2ccc(NC(=O)CC3CCCCC3)cc2)nc1Cn1cccn1` returned an RP-LC retention time of 966 s. In turn, `CC1CN(c2ccc(Br)cc2)c2nc3c(c(=O)n(CC(=O)O)c(=O)n3C)n2C1` (stereo not given) came in with an RP-LC retention time of 829 s. For `CN(C)C(=O)c1ccc2c(c1)N(CC(=O)NCCCN1CCOCC1)C(=O)C1CCCCN21` (stereo not given), the RP-LC retention time was 593 s. Regarding `O=C(NC1CCCCCC1)C1c2ccccc2C(=O)N1Cc1cccnc1` (stereo not given), the RP-LC retention time worked out at 590 s.

Compound `O=C(Cc1cccc(F)c1)N1CCN(C(=O)c2cc(-c3cccnc3)n[nH]2)CC1` yielded an RP-LC retention time of 847 s.

In the case of `C=CCn1c(=O)c2ccc(C(=O)NCC(C)C)cc2n2c(=O)n(CC(N)=O)nc12`, the RP-LC retention time came out at 643 s.

For `COc1ccc(Br)c2c1-c1nc(NC(=O)c3cccc(C)c3)sc1C2`, the RP-LC retention time came to 1140 s.

Turning to `O=C(NCc1cccs1)C1CCN(C(=O)C2Sc3ccccc3NC2=O)CC1` (stereo not given), the RP-LC retention time turned out to be 714 s. Turning to `O=C(Cn1c2ccccc2c2ncn(Cc3nc(C4CC4)no3)c(=O)c21)NC1CCCC1`, the RP-LC retention time is 819 s.

Take `CCNC(=O)C1CCN(S(=O)(=O)c2ccc(OCC)c(C)c2)CC1`: the RP-LC retention time was 796 s. As to `COc1ccccc1N1CCN(C(=O)c2ccc(=O)n(Cc3ccc(F)cc3)n2)CC1`, the RP-LC retention time worked out at 763 s. `COc1ccccc1NC(=O)N1CCc2nc(CNC(=O)C3CCC3)n(C)c2C1` gave an RP-LC retention time of 604 s.

Compound `CCc1sc(NC(=O)c2cc(C)on2)nc1-c1ccccc1` came in with an RP-LC retention time of 1060 s. Take `Cc1sc(NC(=O)c2ccccc2C(=O)O)nc1-c1ccccc1`: the RP-LC retention time amounted to 855 s. The same measure for `CC(=O)c1cc2c(cc1NC(=O)c1cn(Cc3ccc(C)cc3)nn1)OCO2`: 1030 s; for `Cc1noc(-c2ccc(OC3CN(S(=O)(=O)c4c(C)nn(C)c4C)C3)cc2)n1`: 807 s. For the compound `COc1ccc(NC(=O)Nc2cccn3c(C4CCC4)nnc23)cc1OC`, the RP-LC retention time was 718 s. Turning to `COc1cccc(Cc2nc(-c3cn(-c4ccc(F)cc4)nn3)no2)c1`, the RP-LC retention time turned out to be 994 s.

The compound `CC(C)Cn1c(=O)c(C(=O)NCc2ccccc2F)nc2cccnc21` returned an RP-LC retention time of 868 s. `Cc1ccc(-c2nc3ccc(C)cn3c2Nc2ccc3c(c2)OCCO3)cc1` had an RP-LC retention time of 715 s.
